# In patent US20030036184A1 (priority 2000, published 2003):
# Columns and labels:
# PDE7A = PDE7A (Homo sapiens, UniProt Q13946); conditions: cited from earlier work
# PDE7(101-450) = molecular target: T1, PDE7(101-450) (Homo sapiens, UniProt Q13946); experiment: PDE assay for IC50 measurements (SPA, cell lysate enzyme); format: biochemical; conditions: for sensitivity of enzyme to inhibitor: PDE7(101-450) produced in Baculovirus or eucaryote
# T1 construct: made in house; host or cells: CHO (EcRCHO) cells, transient transfection; crude lysate supernatant
# Experimental: (§1) The cell lysates containing PDE7A1 (full length or the truncated forms) were used as enzyme source. PDE assays were performed in 96-well plates in a final volume of […] at pH 8 comprising: 2 μL of compound dissolved in DMSO at 8 different concentrations, 40 mM TRIS, 10 mM MgCl2, 50 nM [^3H]-cAMP (Amersham) and enzyme at the appropriate concentration. Plates were incubated for 10 min at 37° C. in a heater/shaker and stopped by addition of 20 μL Yttrium silicate beads (Scintillation Proximity Assay, Amersham). Enzyme activity was read on a Topcount reader (Packard). Substrate depletion never exceeded 15% of the initial amount. The given IC50s represent the concentration of compound leading to 50% inhibition of the cAMP hydrolysis versus control. They are calculated using a classical sigmoidal model with Hill slope fixed to 1.
# (§2) The cell lysates containing recombinant PDE7A1 (full length or the truncated forms) were used as enzyme source. PDE assays were performed in 96-well plates in a final volume of 100 μL at pH 8 comprising: […] of compound dissolved in DMSO at 8 different concentrations, 40 mM TRIS, 10 mM MgCl2, 50 nM [^3H]-cAMP and enzyme at the appropriate concentration.
# (§3) Plates were incubated for 10 min at 37° C. in a heater/shaker and stopped by addition of 20 μL Yttrium silicate beads (Scintillation Proximity Assay, Amersham).
# (§4) Enzyme activity was determined by measuring the radioactivity on a Topcount reader (Packard).
# (§5) Substrate depletion never exceeded 15% of the initial amount. The given IC50s represent the concentration of compound leading to 50% inhibition of the cAMP hydrolysis versus control. They are calculated using a classical sigmoidal model with Hill slope
# [1] = molecular target: T2, recombinant full length PDE7A1 (Homo sapiens, UniProt Q13946); experiment: as above; format: biochemical; conditions: for sensitivity of enzyme to inhibitor: full length PDE7A produced in Baculovirus or eucaryote
# T2 construct: the full length PDE7A1 protein (1-483); made in house; host or cells: CHO (EcRCHO) cells, transient transfection, cytosol/lysate supernatant; Sf21/baculovirus also described
# T2 sequence (Q13946 whole entry): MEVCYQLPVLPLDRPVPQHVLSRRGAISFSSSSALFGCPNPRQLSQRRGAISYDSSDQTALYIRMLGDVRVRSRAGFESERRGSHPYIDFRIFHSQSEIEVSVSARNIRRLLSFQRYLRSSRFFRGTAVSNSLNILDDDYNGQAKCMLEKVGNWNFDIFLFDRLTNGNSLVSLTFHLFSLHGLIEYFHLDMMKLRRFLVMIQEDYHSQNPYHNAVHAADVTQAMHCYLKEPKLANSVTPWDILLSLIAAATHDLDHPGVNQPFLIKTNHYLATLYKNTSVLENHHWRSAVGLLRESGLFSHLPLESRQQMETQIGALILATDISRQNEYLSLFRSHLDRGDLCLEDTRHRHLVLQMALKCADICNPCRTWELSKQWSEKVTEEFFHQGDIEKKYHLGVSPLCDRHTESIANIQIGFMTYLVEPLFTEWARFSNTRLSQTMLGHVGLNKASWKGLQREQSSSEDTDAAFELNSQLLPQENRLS
# Experimental: as §1, §2, §3, §4, §5
# recombinant PDE7A1 = molecular target: T3, recombinant PDE7A1 (Homo sapiens, UniProt Q13946); experiment: cAMP hydrolysis in cytosol extract of transfected CHO cells, with or without rolipram; format: biochemical; conditions: rolipram 10 μM
# T3 construct: the full length PDE7A1 protein (1-483); made in house; host or cells: CHO (EcRCHO) cells, transient transfection, cytosol/lysate supernatant; Sf21/baculovirus also described
# T3 sequence (Q13946 whole entry): as above
# From the text: (§6) The reaction mixtures were then applied to these columns.
# PDE7(101-483) [2] = molecular target: T4, PDE7(101-483) (Homo sapiens, UniProt Q13946); experiment: cAMP hydrolysis in cytosol extract of transfected CHO cells, with rolipram; format: biochemical; conditions: truncated PDE7 construct 101-483 in CHO; rolipram at 10 μM
# T4 construct: this catalytic fragment (101-482) fragment was co-expressed; made in house; host or cells: CHO (EcRCHO) cells, transient transfection; crude lysate supernatant
# Experimental: Three days before transfection, CHO cells were plated at a density of 2×10^6 cells per 150 cm^2 flask. Cells were transfected with 20 μg of endotoxin free plasmid DNA using Lipofectamine following the manufacturers instructions (Gibco BRL, Gaithersburg, Md.). After incubation for 48 hours, cells were washed twice with phosphate buffered saline (PBS), trypsinized, harvested by centrifugation and resuspended in 300 μL of PDE extraction buffer (Bis Tris 20 mM (pH 6.5), EDTA 10 mM, DTT 2.5 M) supplemented with a mixture of protease inhibitors at a final concentration of 2 mM benzamidine, 2 μg/ml soybean trypsin inhibitor, 50 μM PMSF and 100 μg/ml bacitracin. Cells were sonicated, centrifuged for 20 minutes at 14,000 g and the resultant supernatants were analyzed for cAMP phosphodiesterase activity.
# Phosphodiesterase activities were assayed using a modification of the method described by Smith and collaborators (Manganellio et al., 1991) using the observation that 5′-nucleotides bind very strongly to aluma while the cyclic nucleotides are readily eluted at neutral or slightly alkaline pH. Assays were performed in 96 well plates at 37° C. in a total volume of 200 μl. […] The separated [^3H] cAMP was back-corrected for recovery using the separated and non-separated [^14C] values and expressed as a fraction of the total [^3H] cAMP to give the amount of the substrate hydrolyzed. […]
# PDE7(101-483) [3] = molecular target: T4, PDE7(101-483); experiment: PDE assay for IC50 measurements (SPA, cell lysate enzyme); format: biochemical
# Experimental: as §1, §2, §3, §4, §5
# [4] = molecular target: PDE7 mutant corresponding to the amino acids sequence 101-483 of the full length human PDE7A1 (human) (UniProt Q13946); experiment: cell-based or functional assay
# [5] = PDE assay for Km measurements; format: biochemical; conditions: Km for cAMP
# Experimental: The cell lysates containing PDE7A1 (full length or the truncated forms) were used as enzyme source. […] Substrate concentrations spanned a 15 nM-750 nM range. Plates were incubated for 10 min at 37° C. in a heater/shaker and stopped by addition of 20 μL Yttrium silicate beads (Scintillation Proximity Assay, Amersham). Enzyme activity was read on a Topcount reader (Packard). Substrate depletion never exceeded 15% of the initial amount. Saturation curves were then fitted with a classical sigmoidal model, Hill slope fixed to 1.
# By performing kinetics studies and Km measurements as described above, the respective Km values of the full length PDE7A1 and the truncated 101-450 PDE7A1 recombinant proteins expressed in CHO cells have been determined and are shown in Table 1 below.
# The Km for cAMP of the PDE7(101-450), PDE7(101-483), have been measured and compared to those of endogenously expressed PDE7 in human lymphocyte cell line (Molt4) and the full length wild type recombinant PDE7A1 (Table 1).
# [6] = PDE catalytic activity of full length and truncated PDE7A1 expressed in CHO cells; format: biochemical; conditions: for level of PDE activity after expression in CHO cells (in words): cell cytosol, compared with full length PDE7A1 or PDE7Δ100; for increase in PDE catalytic activity compared to full length PDE7A1/PDE7A2 / phosphodiesterase catalytic activity relative to full length enzyme: expressed in CHO cells
# Experimental: as §6
# The resultant PDE activity was measured and compared to that for the full length coding region of PDE7A1 and non-transfected cells. […] The first 100 amino acids seem to have an influence on the catalytic activity of the expressed PDE7 enzyme.
# [7] = molecular target: T5, catalytic fragment (101-482) (Homo sapiens, UniProt Q13946); experiment: Co-expression of the first 100 N-terminal amino acids with the catalytic fragment in CHO cells, PDE activity; format: cell-based
# T5 construct: this catalytic fragment (101-482) fragment was co-expressed; 6xHis (N); expressed in transfected cells; host or cells: CHO cells co-transfected (lipofectamine) with two plasmids; PDE activity measured
# Experimental: This part of the protein has been proposed to act as an auto-inhibitory domain. To establish if overexpression of the first 100 amino acids can inhibit PDE7 activity of the catalytic site, this catalytic fragment (101-482) fragment was co-expressed with the fragment 1-101 of a separate plasmid or with the plasmid pcDNA3 without this insert (negative control). Cells were transfected with 15 μg of each plasmid DNA. The catalytic site activity was inhibited of only around 40-50% in presence of fragment 1-101. (FIG. 12) The effect dose response has been checked to evaluate the involvement of the first 100 amino in PDE7 activity of the catalytic domain.
# A dose effect curve has been done in the same coexpression conditions. 15 μg of the catalytic fragment (101-482) was coexpressed with increasing quantity of the fragment 1-101 of a separate plasmid. The DNA quantity was normalized for each transfection using an empty vector. (FIG. 13) A effect dose response of 100 N-terminal amino acids on PDE7 activity was observed (n=3). The catalytic domain activity was inhibited until 60% in presence of the fragment 1-100 at the highest concentration.
# Chain of PDE7A (Q13946 whole entry, species assumed): as the sequence (Q13946 whole entry) above
molecule,measurement,setting,value
Cc1[nH]c(=O)c(C#N)cc1-c1ccncc1 [milrinone],sensitivity of PDE7A to standard selective inhibitors of other PDE families,PDE7A,insensitivity
COc1ccc(C2CNC(=O)C2)cc1OC1CCCC1 (stereo not drawn) [rolipram],sensitivity of enzyme to inhibitor,PDE7(101-450),insensitive
same,sensitivity of enzyme to inhibitor,[1],insensitive
same,sensitivity of increase in cAMP activity above basal to rolipram,recombinant PDE7A1,insensitive
same,sensitivity of PDE activity to rolipram,PDE7(101-483) [2],insensitive
"CC(C)Cn1c(=O)n(C)c(=O)c2[nH]cnc21 [IBMX, 3 isobutyl-1-methyl xanthine]",IC50,PDE7(101-450); PDE7(101-450),13 to 14 µM
same,IC50,PDE7(101-483) [3],13 to 14 µM
same,IC50,[1]; recombinant full length PDE7A1,13 to 14 µM
CCCOc1ccccc1-c1nc2nn[nH]c2c(=O)[nH]1 [Zaprinast],sensitivity of enzyme to inhibitor,PDE7(101-450),insensitive
same,sensitivity of enzyme to inhibitor,[1],insensitive
same,sensitivity of PDE7A to standard selective inhibitors of other PDE families,PDE7A,insensitivity
CCOC(=O)C1=C[C@]2(CC)CCCN3CCc4c(n1c1ccccc41)[C@@H]32 [Vinpocetin],sensitivity of enzyme to inhibitor,PDE7(101-450),insensitive
same,sensitivity of enzyme to inhibitor,[1],insensitive
same,sensitivity of PDE7A to standard selective inhibitors of other PDE families,PDE7A,insensitivity
CN/C(=N\c1ccc(C2=NNC(=O)CC2C)cc1)NC#N (stereo not drawn) [SKF-94836],sensitivity of enzyme to inhibitor,PDE7(101-450),insensitive
same,sensitivity of enzyme to inhibitor,[1],insensitive
same,sensitivity of PDE7A to standard selective inhibitors of other PDE families,PDE7A,insensitivity
first N-terminal 100 amino acids of the full length human PDE7A1 (from UniProt Q13946 1-100),"PDE7 catalytic domain activity in CHO cells, 15 µg catalytic fragment plasmid with increasing quantity of fragment 1-101 plasmid, percent inhibition at the highest concentration",[4],60%
same,"PDE7 catalytic site activity in lysates of co-transfected CHO cells (15 µg of each plasmid), percent inhibition",[4],40 to 50%
"PDE7A;101-450: truncated human PDE7A1, amino acids 101-450; positions 45-394 of SEQ ID No1 (protein, listed as Homo sapiens) VSVSARNIRRLLSFQRYLRSSRFFRGTAVSNSLNILDDDYNGQAKCMLEKVGNWNFDIFLFDRLTNGNSLVSLTFHLFSLHGLIEYFHLDMMKLRRFLVMIQEDYHSQNPYHNAVHAADVTQAMHCYLKEPKLANSVTPWDILLSLIAAATHDLDHPGVNQPFLIKTNHYLATLYKNTSVLENHHWRSAVGLLRESGLFSHLPLESRQQMETQIGALILATDISRQNEYLSLFRSHLDRGDLCLEDTRHRHLVLQMALKCADICNPCRTWELSKQWSEKVTEEFFHQGDIEKKYHLGVSPLCDRHTESIANIQIGFMTYLVEPLFTEWARFSNTRLSQTMLGHVGLNKAS",Km,[5],0.07 µM
same,Km,[5]; Table 1,0.074 µM
same,level of PDE activity after expression in CHO cells (in words),[6],equivalent to that observed for PDE7Δ100
same,increase in PDE catalytic activity compared to full length PDE7A1/PDE7A2,[6],about 15 fold
same,phosphodiesterase catalytic activity relative to full length enzyme,[6],about 15 times
"PDE7A;101-420: truncated human PDE7A1, amino acids 101-420 (protein, UniProt Q13946 101-420, looked up, fragment, PDE7A1) VSVSARNIRRLLSFQRYLRSSRFFRGTAVSNSLNILDDDYNGQAKCMLEKVGNWNFDIFLFDRLTNGNSLVSLTFHLFSLHGLIEYFHLDMMKLRRFLVMIQEDYHSQNPYHNAVHAADVTQAMHCYLKEPKLANSVTPWDILLSLIAAATHDLDHPGVNQPFLIKTNHYLATLYKNTSVLENHHWRSAVGLLRESGLFSHLPLESRQQMETQIGALILATDISRQNEYLSLFRSHLDRGDLCLEDTRHRHLVLQMALKCADICNPCRTWELSKQWSEKVTEEFFHQGDIEKKYHLGVSPLCDRHTESIANIQIGFMTYL",level of PDE activity after expression in CHO cells (in words),[6],no detectable increase
"PDE7Δ100: human PDE7A1 construct which lacks the first 100 amino acids; positions 45-427 of SEQ ID No1 (protein, left off: small tags and cut ends) VSVSARNIRRLLSFQRYLRSSRFFRGTAVSNSLNILDDDYNGQAKCMLEKVGNWNFDIFLFDRLTNGNSLVSLTFHLFSLHGLIEYFHLDMMKLRRFLVMIQEDYHSQNPYHNAVHAADVTQAMHCYLKEPKLANSVTPWDILLSLIAAATHDLDHPGVNQPFLIKTNHYLATLYKNTSVLENHHWRSAVGLLRESGLFSHLPLESRQQMETQIGALILATDISRQNEYLSLFRSHLDRGDLCLEDTRHRHLVLQMALKCADICNPCRTWELSKQWSEKVTEEFFHQGDIEKKYHLGVSPLCDRHTESIANIQIGFMTYLVEPLFTEWARFSNTRLSQTMLGHVGLNKASWKGLQREQSSSEDTDAAFELNSQLLPQENRLS",Km,[5]; Table 1,0.052 µM
same,increase in PDE catalytic activity compared to mock transfected cells,[6]; CHO cells,8 fold
same,level of PDE activity after expression in CHO cells (in words),[6],Highest levels of PDE activity
same,increase in PDE catalytic activity compared to full length PDE7A1/PDE7A2,[6],15 fold
same,phosphodiesterase catalytic activity relative to full length enzyme,[6],about 15 times
"PDE7A;101-430: truncated human PDE7A1, amino acids 101-430 (protein, UniProt Q13946 101-430, looked up, fragment, PDE7A1) VSVSARNIRRLLSFQRYLRSSRFFRGTAVSNSLNILDDDYNGQAKCMLEKVGNWNFDIFLFDRLTNGNSLVSLTFHLFSLHGLIEYFHLDMMKLRRFLVMIQEDYHSQNPYHNAVHAADVTQAMHCYLKEPKLANSVTPWDILLSLIAAATHDLDHPGVNQPFLIKTNHYLATLYKNTSVLENHHWRSAVGLLRESGLFSHLPLESRQQMETQIGALILATDISRQNEYLSLFRSHLDRGDLCLEDTRHRHLVLQMALKCADICNPCRTWELSKQWSEKVTEEFFHQGDIEKKYHLGVSPLCDRHTESIANIQIGFMTYLVEPLFTEWAR",level of PDE activity after expression in CHO cells (in words),[6],no detectable increase
"fragment 1-101: first N-terminal 100 amino acids of the full length human PDE7A1 (protein, UniProt Q13946 1-100, looked up, fragment, PDE7A1, first N-terminal 100 amino acids of the full length human PDE7A1) MEVCYQLPVLPLDRPVPQHVLSRRGAISFSSSSALFGCPNPRQLSQRRGAISYDSSDQTALYIRMLGDVRVRSRAGFESERRGSHPYIDFRIFHSQSEIE",inhibition of catalytic site activity,"[7]; co-expression, 15 μg of each plasmid DNA",40-50%
same,inhibition of catalytic domain activity,"[7]; dose effect curve, fragment at the highest concentration, n=3",≤ 60%
